Key:
[1] = system: Vancomycin-resistant Enterococcus faecalis (VRE); test: CLSI Vancomycin disk-diffusion test; format: cell-based; conditions: VRE ATCC 51575; CLSI Vancomycin resistant range: ≦14 mm
[2] = system: Methicillin-resistant Staphylococcus aureus (MRSA); test: MIC/MBC susceptibility test, macrodilution broth method; format: cell-based; conditions: MRSA ATCC 33592; Tryptic soy agar with 5% sheep blood; 36° C. for 48 hours; 5.2 × 10^5 CFU/ml
Protocol: (§1) Susceptibility of various microorganisms to gallium was tested by determining the minimum inhibitory concentration (MIC) and minimum bactericidal concentration (MBC) for each microorganism using gallium nitrate. In general, MIC is determined by (i) mixing a series of broths, each containing a standard number of microorganisms, with serially diluted solutions of the gallium compound; and (ii) determining the MIC, after incubation, that is the lowest concentration of the gallium compound that inhibits the growth of the microorganism. The lower the MIC, the more susceptible the organism is. The MBC is determined by subculturing an aliquot of each sample from the MIC test on an appropriate agar plate containing no gallium compound.
(§2) Specifically, in the present experiment, two grams of gallium nitrate powder were dissolved in 10 ml of filter-sterilized deionized water and the resulting 20% (w/v) (i.e., 200 mg/ml) solution was once again filter-sterilized. Two-fold serial dilutions were prepared in sterile deionized water down to 0.156% (i.e., 1.56 mg/ml) for the tests for most of the organisms, except for the test for Candida albicans, in which 10%, 1%, 0.5%, 0.1%, 0.05%, 0.01%, 0.005% and 0.001% of gallium nitrate solutions were prepared.
(§3) All organisms were obtained from the American Type Culture Collection (ATCC), Manassas, Va. Each microorganism was picked from the seed culture (see Table 1) and inoculated in an appropriate type of broth to obtain a 0.5 McFarland turbidity standard. The standard suspension of the microorganism was then diluted to 1:100 with the broth and used for the tests.
(§4) Each microorganism was tested in duplicate by either a microdilution broth method in 96-well plates (i.e., 0.1 ml of the gallium nitrate solution mixed with 0.1 ml of the microorganism suspension) or a macrodilution broth method in test tubes (i.e., 1 ml of the gallium nitrate solution mixed with 1 ml of the microorganism suspension) as follows: […]
(§5) The growth of the microorganisms were determined by visual observation of turbidity in the samples. […]

Salmonella typhi = test: as above; format: cell-based; conditions: Salmonella typhi ATCC 6539; Tryptic soy agar with 5% sheep blood; 36° C. for 48 hours; 8.3 × 10^5 CFU/ml
Protocol: as §1, §2, §3, §4, §5

[3] = system: Vancomycin-resistant Enterococcus faecalis (VRE); test: as above; format: cell-based; conditions: VRE ATCC 51575; Tryptic soy agar with 5% sheep blood; 36° C. for 48 hours; 3.9 × 10^5 CFU/ml
Protocol: as §1, §2, §3, §4, §5

Campylobacter jejuni = test: MIC/MBC susceptibility test, microdilution broth method; format: cell-based; conditions: Campylobacter jejuni ATCC 29428; Tryptic soy agar with 5% sheep blood; 36° C. for 48 hours; 4.9 × 10^5 CFU/ml
Protocol: as §1, §2, §3
(§6) Each microorganism was tested in duplicate by either a microdilution broth method in 96-well plates (i.e., 0.1 ml of the gallium nitrate solution mixed with 0.1 ml of the microorganism suspension) or a macrodilution broth method in test tubes (i.e., 1 ml of the gallium nitrate solution mixed with 1 ml of the microorganism suspension) as follows:
(§7) Microdilution broth method: Candida albicans; Escherichia coli O157:H7; and Campylobacter jejuni.
(§8) The growth of the microorganisms were determined by visual observation of turbidity in the samples.
(§9) To determine MBC, 10 μl of each sample used in MIC were inoculated onto an appropriate agar plate and incubated.

Candida albicans = test: as above; format: cell-based; conditions: Candida albicans ATCC 10231, 27° C. for 48 hours, 9.75 × 10^5 CFU/ml
Protocol: as §1, §2, §3, §6, §7, §8, §9

Escherichia coli O157:H7 = test: as above; format: cell-based; conditions: E. coli O157:H7 ATCC 35150; Tryptic soy agar with 5% sheep blood; 36° C. for 48 hours; 1.38 × 10^6 CFU/ml
Protocol: as §1, §2, §3, §6, §7, §8, §9

[4] = healthy adults; intravenous infusion for at least 7 days; from U.S. Pat. No. 6,203,822; cited from earlier work

Row | Compound | zone of inhibition [1] | MBC [2] | MBC (Salmonella typhi) | MBC [3] | MBC (Campylobacter jejuni) | MIC (Candida albicans; Sabouraud Dextrose broth) | MBC (Candida albicans; Sabouraud dextrose agar) | MBC (Escherichia coli O157:H7) | tolerated dose [4]
1 | CN[C@H](CC(C)C)C(=O)N[C@H]1C(=O)N[C@@H](CC(N)=O)C(=O)N[C@H]2C(=O)N[C@H]3C(=O)N[C@H](C(=O)N[C@H](C(=O)O)c4cc(O)cc(O)c4-c4cc3ccc4O)[C@H](O)c3ccc(c(Cl)c3)Oc3cc2cc(c3O[C@@H]2O[C@H](CO)[C@@H](O)[C@H](O)[C@H]2O[C@H]2C[C@](C)(N)[C@H](O)[C@H](C)O2)Oc2ccc(cc2Cl)[C@H]1O [Vancomycin] | ^bAntibiotics resistance of the organism was confirmed by CLSI Vancomycin disk-diffusion test. The zone of inhibition was 10 mm (CLSI Vancomycin resistant range: ≦14 mm). | – | – | – | – | – | – | – | –
2 | O=[N+]([O-])[O-].O=[N+]([O-])[O-].O=[N+]([O-])[O-].[Ga+3] [gallium nitrate] | – | 12500 µg/mL | 6250 µg/mL | 25000 µg/mL | <780 µg/mL | 10000 µg/mL | >100000 µg/mL | 6250 µg/mL | at least 200 mg/m^2/day

Reference: US8895077B2, “Methods for preventing or treating infectious diseases caused by extracellular microorganisms, including antimicrobial-resistant strains thereof, using gallium compounds” (priority 2007, dated 2014)
